Laboratory results published in article PMC4747383, “Design of a peptidic inhibitor that targets the dimer interface of a prototypic galectin” (Oncotarget, 2015).

Tests used:
[1] = tested on: recombinant hGal-1; test: Disruption of hGal-1 dimers, native gel electrophoresis/Western blot; assay type: biochemical, human; settings: recombinant hGal-1, 20 mM potassium phosphate pH 7.1, films overexposed, three independent experiments
Excerpt: To measure the ability of the peptides to disrupt the formation of hGal-7 dimers, we used mild denaturing native gel electrophoresis, a commonly used approach to visualize monomer-dimer equilibrium (Fig. 1A and Supplementary Fig. S1). […] This specificity at disrupting hGal-7 dimer formation is provided by distinct three-dimensional arrangements between otherwise very similar galectin homologues. Indeed, while all monomeric galectins reveal identical topologies, dimer formation in hGal-7 proceeds through a “back-to-back” topology of the monomers while other galectins, including hGal-1 and hGal-2, adopt a “side-by-side” structural arrangement (Fig. 1B). This structural organization provides additional means to specifically target and disrupt galectin function.
Incubation of the recombinant B. hGal-1 and C. hGal-2 with hGal-7(129–135) was performed in the same potassium phosphate buffer. The effect of hGal-7(129–135) on the monomeric and dimeric forms of hGal-7/hGal-1/hGal-2 was assessed by Western blotting in native conditions with respective antibodies. The hGal-1/hGal-2 films were overexposed. PACAP28–38 was the control peptide used in order to ensure the specificity of hGal-7(129–135). […]
Human Gal-7 cDNA was cloned into pET-22b(+) using NdeI and HindIII restriction enzymes. […] Purified fractions were analyzed by SDS-PAGE. […]

[2] = tested on: PBMCs; test: hGal-7-induced apoptosis of PBMCs, PARP-1 cleavage (Western blot); assay type: cell-based, human; settings: increasing hGal-7 pre-incubated with peptide 200 μM, 4 h at 37°C, serum-free, two independent experiments
Protocol: The Jurkat cell line was maintained in RPMI 1640 medium. The culture medium was supplemented with 10% [v/v] fetal bovine serum, 2 mmol/L L-glutamine, 10 mM HEPES buffer, and 1 mM sodium pyruvate. All cell culture products were purchased from Life Technologies (Burlington, ON, Canada). Isolation of peripheral mononuclear cell (PBMCs) was performed as previously described.
For the apoptosis tests, whole-cell extracts were homogenized and resuspended in RIPA buffer (Thermo Fisher Scientific, Rockford, IL, USA) containing protease inhibitors (Roche, Laval, QC, Canada). Equal amounts of whole-cell extracts (25 μg) were separated on SDS-PAGE and transferred onto nitrocellulose membranes (Bio-Rad Laboratories). The membranes were first blocked with 5% milk [w/v] in TBS/0.5% Tween 20 [v/v] for 1 h at room temperature and subsequently blotted overnight in a solution of TBS containing 3% BSA [w/v] and 0.5% Tween 20 [v/v]. The following antibodies were used: a rabbit anti-poly-(ADP-ribose) polymerase (PARP)-1 (p25) polyclonal antibody (1:5000; Epitomics, Burlingame, CA, USA) and a mouse anti-β-actin (1:10000; Sigma-Aldrich, St. Louis, MO, USA). […]
concentrations of recombinant human gaI-7 were pre-incubated with the hGaI-7129–135 (200 μM) prior to its addition to A. Jurkat T cells or B. PBMCs. Apoptosis wa, measured after 4 h at 37°C in serum·free conditions. […]

H-LDSVRIP-NH2 [hGal-7(129–135), peptide corresponding to hGal-7 segment between residues 129–135]
disruption of hGal-1 homodimers [1]: No such effect was observed
inhibition of hGal-7-induced apoptosis in PBMCs (PARP-1 cleavage) [2]: also observed using human peripheral blood monocytes
inhibition of hGal-7-induced apoptosis in PBMCs (PARP-1 cleavage) ([2]; listed as hGaI-7129–135): decreases gaI-7-induced apoptosis
